Experiments:
A2A receptor = A2A receptor (Homo sapiens, UniProt P29274); experiment: A2A receptor antagonist functional assay (cAMP, NECA at EC80); type: cell-based; conditions: A2A cell line (PerkinElmer ES-011-C); 5'-N-ethylcarboxamidoadenosine at EC80; cAMP readout; read-out: A2A Antagonistic function IC50
Procedure: (§1) The A2A cell line was derived from PerkinElmer (Product ID: ES-011-C); the A2B cell line was derived from PerkinElmer (Product ID: ES-013-C). The experimental procedure was referred to ACS Medicinal Chemistry Letters (2011) 2, 213-218; the specific test was completed by Pharmaron Beijing Co., Ltd. with the following steps: 10 nL of compound stock in DMSO (10 mM) followed by 10 μL of A2A or A2B cell suspension (30000 cells/mL) were transferred to assay wells of a 384-well plate at room temperature and incubated for 20 minutes at room temperature. The corresponding amount of 5′-N-ethylcarboxamidoadenosine at EC80 activation concentration was transferred to each test well, and incubated for another 30 minutes at 37° C., 5% CO2, 95% humidity, then Eu-cAMP tracer working solution and Ulight-anti-cAMP working solution were added to the cell culture plate at 5 uL/well in sequence, and the cell plate fluorescence was read with Envision (excitation wavelength: 320 nm, emission wavelength: 665 nm and 615 nm). The corresponding inhibition rate in each well was obtained according to the following formula, and a sigmoidal dose-inhibition rate curve was plotted using a non-linear regression model to calculate the IC50 value.

A2B receptor = biological target: T1, A2B receptor (Homo sapiens, UniProt P29275); experiment: A2B receptor antagonist functional assay (cAMP, NECA at EC80); type: cell-based; conditions: A2B cell line (PerkinElmer ES-013-C); 5'-N-ethylcarboxamidoadenosine at EC80; cAMP readout; read-out: A2B Antagonistic function IC50
T1 sequence (P29275 1-332): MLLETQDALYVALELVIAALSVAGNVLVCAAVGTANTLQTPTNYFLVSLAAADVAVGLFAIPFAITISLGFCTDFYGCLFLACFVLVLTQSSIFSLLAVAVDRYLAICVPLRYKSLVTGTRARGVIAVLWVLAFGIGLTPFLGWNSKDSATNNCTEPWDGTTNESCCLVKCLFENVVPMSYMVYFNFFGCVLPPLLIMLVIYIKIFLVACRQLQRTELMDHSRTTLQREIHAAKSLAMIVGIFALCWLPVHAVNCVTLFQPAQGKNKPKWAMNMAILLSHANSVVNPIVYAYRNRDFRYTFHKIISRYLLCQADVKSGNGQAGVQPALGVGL
Procedure: as §1

Chain of A2A receptor (P29274 whole entry): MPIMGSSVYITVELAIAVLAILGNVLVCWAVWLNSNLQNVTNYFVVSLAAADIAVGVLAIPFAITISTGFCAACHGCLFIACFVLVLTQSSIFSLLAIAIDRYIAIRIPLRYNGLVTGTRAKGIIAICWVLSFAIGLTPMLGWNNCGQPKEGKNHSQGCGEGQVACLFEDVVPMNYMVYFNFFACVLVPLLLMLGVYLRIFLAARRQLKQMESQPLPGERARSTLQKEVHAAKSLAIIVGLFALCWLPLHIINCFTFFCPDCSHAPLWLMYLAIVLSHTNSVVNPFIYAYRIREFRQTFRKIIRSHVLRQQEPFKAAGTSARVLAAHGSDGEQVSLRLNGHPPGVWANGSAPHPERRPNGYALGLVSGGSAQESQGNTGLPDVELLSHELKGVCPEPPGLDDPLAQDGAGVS

Row | IC50 (A2A receptor) [nM] | IC50 (A2B receptor) [nM] | Compound
1 | 3.8 | 149 | COc1cccc(Cc2noc3c(-c4ccc(C)o4)nc(N)nc23)c1 [Compound 1]
2 | 7 | – | Cc1ccc(-c2nc(N)nc3c(Cc4ccc(F)cc4)noc23)o1 [Compound 2]
3 | 120 | – | COc1ccc(Cc2noc3c(-c4ccc(C)o4)nc(N)nc23)cc1 [Compound 3]
4 | 6.9 | – | COc1ccccc1Cc1noc2c(-c3ccc(C)o3)nc(N)nc12 [Compound 4]
5 | 31.8 | – | Cc1ccc(-c2nc(N)nc3c(Cc4ccc(Cl)cc4)noc23)o1 [Compound 5]
6 | 3.7 | – | Cc1ccc(-c2nc(N)nc3c(Cc4cccc(Cl)c4)noc23)o1 [Compound 6]
7 | 11 | 11 | Cc1ccc(-c2nc(N)nc3c(Cc4cccc(O)c4)noc23)o1 [Compound 7]
8 | 80 | – | Cc1ccc(-c2nc(N)nc3c(Cc4ccc(O)cc4)noc23)o1 [Compound 8]
9 | 10.2 | – | Cc1ccc(-c2nc(N)nc3c(Cc4ccccc4O)noc23)o1 [Compound 9]
